Source: paper PMC9916658, “Design and Synthesis of New Quinazolin-4-one Derivatives with Negative mGlu7 Receptor Modulation Activity and Antipsychotic-Like Properties” (International Journal of Molecular Sciences, 2023)
Read-outs that look alike come from different tables or passages of the source.

What was measured:
[1] = target: T1, recombinant human mGlu7 receptor (Homo sapiens, UniProt Q14831); test: NAM mGlu7 activity, forskolin-induced cAMP (HTRF) in T-REx 293 cell line; assay type: cell-based; conditions: forskolin-stimulated cAMP response, 5 µM LSP4-2022 (EC80), T-REx 293 human mGlu7; for inhibition at 10 µM: T-REx-293, 10 μM compound
T1 construct: expressed in transfected cells; host or cells: T-REx 293 (tetracycline-inducible)
T1 sequence (Q14831 35-915): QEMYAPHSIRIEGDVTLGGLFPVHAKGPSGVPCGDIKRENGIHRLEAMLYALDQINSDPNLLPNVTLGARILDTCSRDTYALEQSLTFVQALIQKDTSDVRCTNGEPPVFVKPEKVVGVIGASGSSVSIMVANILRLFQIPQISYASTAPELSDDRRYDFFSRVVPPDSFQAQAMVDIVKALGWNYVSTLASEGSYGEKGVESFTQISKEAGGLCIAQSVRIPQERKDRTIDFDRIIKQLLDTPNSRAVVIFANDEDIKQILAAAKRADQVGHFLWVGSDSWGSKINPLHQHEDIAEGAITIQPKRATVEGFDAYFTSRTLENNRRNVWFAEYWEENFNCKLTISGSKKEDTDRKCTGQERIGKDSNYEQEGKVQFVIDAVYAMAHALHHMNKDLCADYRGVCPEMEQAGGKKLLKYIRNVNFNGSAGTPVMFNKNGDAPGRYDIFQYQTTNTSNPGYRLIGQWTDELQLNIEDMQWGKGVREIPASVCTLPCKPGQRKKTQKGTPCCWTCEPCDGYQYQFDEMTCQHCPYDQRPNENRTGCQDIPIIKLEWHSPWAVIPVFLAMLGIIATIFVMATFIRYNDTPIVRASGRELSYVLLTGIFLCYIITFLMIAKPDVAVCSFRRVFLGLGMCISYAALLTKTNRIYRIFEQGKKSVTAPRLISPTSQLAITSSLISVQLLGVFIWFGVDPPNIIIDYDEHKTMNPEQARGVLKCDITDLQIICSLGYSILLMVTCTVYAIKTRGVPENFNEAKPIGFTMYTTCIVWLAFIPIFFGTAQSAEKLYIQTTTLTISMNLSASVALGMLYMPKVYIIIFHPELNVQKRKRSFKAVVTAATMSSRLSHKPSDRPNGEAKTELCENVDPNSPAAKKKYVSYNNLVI
Protocol: The cell lines with the tetracycline-inducible expression of human metabotropic receptors 4, 7, and 8 were described in detail by Chruścicka et al. (mGlu4 receptor NM_000841, mGlu7 receptor NM_000844.2, and mGlu8 receptor NM_000845). Cells were grown under standard cell culture conditions (37 °C, 5% CO2) in DMEM supplemented with 10% tetracycline-free FBS. The expression was induced through the addition of tetracycline to the culture medium at 0.75 μg/mL.
The determination of the intracellular cAMP through homogeneous time-resolved fluorescence (HTRF) was described in detail previously. Briefly, 48 h before the experiments, the expression of the receptor was induced through the addition of tetracycline to the culture medium; the next day, FBS and L-Glu were removed from the medium. Just before the cAMP measurement, the cells were detached and centrifuged. Then, the cell suspension in Hanks-HEPES (130 mM NaCl, 5.4 mM KCl, 1.8 mM CaCl2, 0.8 mM MgSO4, 0.9 mM NaH2PO4, 20 mM HEPES, and 3.25 mM glucose; pH 7.4) was incubated in the presence of 10 µM forskolin (mGlu7 receptor, 3 µM forskolin), the agonist LSP4-2022 or L-Glu (for mGlu4 and mGlu8), and a compound for 5 min. The intracellular concentration of cyclic AMP was measured by means of a cAMP Gi HTRF kit from Cisbio, according to the manufacturer’s instructions. After 1 h of incubation at room temperature, the fluorescence at 620 nm and 665 nm was read (Tecan Infinite M1000). The results were calculated as the 665 nm/620 nm ratio multiplied by 10^4. Each sample was prepared in triplicate. Data were analyzed using GraphPad Prism version 5.04 for Windows (GraphPad Software, San Diego, USA).
The activity of the compounds was examined in the T-REx 293-cell-line-expressing recombinant human mGlu7 receptor by detecting the level of cyclic AMP in the presence of 5 µM forskolin [7, 41]. […] The substances were incubated with 5 µM LSP4-2022 (EC80).
Firstly, all compounds were screened at 10 μM using three cell lines expressing the mGlu4/7/8 receptor to evaluate selectivity. For the mGlu4 and mGlu8 receptors, glutamic acid was used as an agonist and had good potency. […] VU0155041 and AZ12216052 were used as reference compounds for the mGlu4 and mGlu8 receptors, respectively. The parameter described as “% of inhibition” was introduced to compare the bioactivity of the new compounds to the reference NAM at a 10 μM concentration in the presence of 5 μM LSP4-2022 (0%) and 3 μM forskolin (100%). […] For compounds that passed the screening procedure, the dose–response curve in the presence of LSP4-2022 in 5 μM was evaluated compared to reference NAM ADX71743. Only compounds ALX-063, ALX-065, and ALX-171 (Figure S3, Supplementary Materials) met our conditions regarding bioactivity. All of them were further investigated to determine the EC50 and receptor selectivity. […]
2.1. NAM mGlu7 receptor activity on T-Rex 293 cell line
The activity of compounds was examined on T-REx 293 cell line expressing recombinant human mGlu7 receptor by detecting the level of cyclic AMP in the presence of 5 µM forskolin [14,15]. The cell line was […]
incubated with 5 µM of LSP4-2022 (EC80).

[2] = Pharmacokinetics and brain uptake in mice after i.p. administration; assay type: in vivo, mouse (Albino Swiss); conditions: 10 mg/kg i.p.; for AUC(0-t) / Tmax / half-life / Cmax: ip
Protocol: Compounds were administered to mice at a dose of 10 mg/kg i.p. Plasma and tissue samples were collected at 0.25, 0.50, 1.0, 2.0, 4.0, 6.0, and 24 h. Plasma and tissue samples from all drug-treated animals were thawed at room temperature prior to use. The standard protocol for sample preparation was used: 200 μL of acetonitrile was added to the Eppendorf tubes with 50 μL of studied plasma samples or tissue homogenate. Samples were mixed for 5 min on a mixer at 25 °C and 1400 rpm. The tubes were then centrifuged at 2000× g for 15 min at 4 °C. A total of 180 μL of each supernatant was transferred to a plate well. Finally, each sample was injected into the LC–MS column. Calibration curve serial dilution method: Plasma was spiked with a standard at different concentrations. Acetonitrile was added. After mixing and centrifugation, the supernatant was collected.
Chromatographic conditions. Plasma and tissue samples from all drug-treated animals at selected time points were analyzed using a previously developed nonvalidated LC–MS/MS method. […] The LC–MS analysis was carried out on a Bruker amaZon SL mass spectrometer using the positive/negative ion ESI mode. Chromatographic separation was achieved on an Ascentis Express C18 column (5 cm × 2.1 mm, 2.7 μM, Supelco Technologies) at room temperature with a thermostatted column oven. A gradient elution of eluents A (acetonitrile (LiChrosolv, Reag. Ph Eur) + 0.1% formic acid (Sigma Aldrich, 98–100%)) and B (water + 0.1% formic acid) were used for separation. The flow rate was set at 1 mL/min. The injection volume was 20 μL, and the time of injection was 4 min.
Mass spectrometric conditions. An ion trap mass spectrometer (Bruker amaZon SL, Bruker, Bremen, Germany) was equipped with an electrospray source operating in the positive/negative ion mode. Data were collected and processed using Bruker Quant Analysis (Bruker, Bremen, Germany) software. A quantification of the analytes was performed in the SIM mode.

[3] = mouse Albino Swiss, brain, read-out: AUC0-t, brain
[4] = mouse Albino Swiss, plasma, read-out: AUC0-t, plasma
[5] = Albino Swiss, mouse, plasma and brain, mice, read-out: Tmax (plasma and brain) (converted)
[6] = mouse Albino Swiss, brain, read-out: T1/2, brain (converted)
[7] = mouse Albino Swiss, brain, read-out: Tmax, brain
[8] = mouse Albino Swiss, plasma, read-out: T1/2, plasma (converted)
[9] = mouse Albino Swiss, plasma, read-out: Tmax, plasma

| Compound | inhibition at 10 µM [1] | AUC(0-t) [2, 3] | AUC(0-t) [2, 4] | Cmax, brain ([2]; mouse Albino Swiss, brain) | Tmax [2, 5] | half-life [2, 6] | Tmax [2, 7] | Cmax ([2]; mouse Albino Swiss, plasma) | half-life [2, 8] | Tmax [2, 9] | Inhibition (%) ([1]; 10 μM compound) |
| --- | --- | --- | --- | --- | --- | --- | --- | --- | --- | --- | --- |
| CCc1nc2c(o1)CC(c1ccc(C)cc1C)CC2=O (stereo not shown) [ADX71743, reference compound] | 42.6% | 2.27 µM·h | 1.9 µM·h | 3.38 µM/L |  |  |  |  |  |  |  |
| Cn1c(-c2ccccc2Cl)nc2ccc(-c3ccccc3)cc2c1=O [ALX-065, 2-(2-chlorophenyl)-3-methyl-6-phenylquinazolin-4(3H)-one] | 26.5 ± 11.8% | 1.32 µM·h | 1.99 µM·h | 1.81 µM/L | 15 min | 29.4 min | 15 min | 2.28 µM | 78.6 min | 15 min |  |
| COc1cccc(-c2ccc3nc(-c4ccccc4Cl)n(C)c(=O)c3c2)c1OC [ALX-171, 2-(2-chlorophenyl)-6-(2,3-dimethoxyphenyl)-3-methylquinazolin-4(3H)-one] | 30.8 ± 6.44% | 13.8 µM·h | 13.4 µM·h | 2.52 µM/L | 15 min | 334 min | 15 min | 4.46 µM | 312 min | 30 min | 30.8 ± 6.44% |
